These results are taken from patent US11845747B2, “Ester and carbonate pyrimidine compounds as JAK kinase inhibitors” (priority 2019, dated 2023).

In brackets after ≈: the same amount, converted by molar mass.

For one series, the target named is T1, JAK1 (Homo sapiens, UniProt P23458).
T1 construct: GST; purchased Life Technologies
Kind of series: Biochemical LanthaScreen JAK1 kinase assay. Conditions: Km ATP 25 μM; pKi from pIC50 by Cheng-Prusoff; read-out: JAK 1 (pKi) (converted). How it is done: (§1) Assay 1: Biochemical JAK and Tyk2 Kinase Assays A panel of four LanthaScreen JAK biochemical assays (JAK1, 2, 3 and Tyk2) were carried in a common kinase reaction buffer (50 mM HEPES, pH 7.5, 0.01% Brij-35, 10 mM MgCl2, and 1 mM EGTA). Recombinant GST-tagged JAK enzymes and a GFP-tagged STAT1 peptide substrate were obtained from Life Technologies. Serially or discretely diluted compounds were pre-incubated with each of the four JAK enzymes and the substrate in white 384-well microplates (Corning) at ambient temperature for 1 h. ATP was subsequently added to initiate the kinase reactions in 10 μL total volume, with 1% DMSO. […] Kinase reactions were allowed to proceed for 1 hour at ambient temperature before a 10 μL preparation of EDTA (10 mM final concentration) and Tb-anti-pSTAT1 ([…]) antibody (Life Technologies, 2 nM final concentration) in TR-FRET dilution buffer (Life Technologies) was added. The plates were allowed to incubate at ambient temperature for 1 h before being read on the EnVision reader (Perkin Elmer). Emission ratio signals (520 nm/495 nm) were recorded and utilized to calculate the percent inhibition values based on DMSO and background controls. For dose-response analysis, percent inhibition data were plotted vs. compound concentrations, and IC50 values were determined from a 4-parameter robust fit model with the Prism software (GraphPad Software). Results were expressed as pIC50 (negative logarithm of IC50) and subsequently converted to pKi (negative logarithm of dissociation constant, Ki) using the Cheng-Prusoff equation.

A short description of another series: physchem. It counts as physicochemical. Conditions: pH 7.4, aqueous buffer, thermodynamic from solid. Here is the method:
Assay 4: Aqueous Solubility Assay The purpose of this assay was to quantify the solubility of test compounds in pH 4 and pH 7.4 PBS buffers. The assay required 40 μL of 10 mM DMSO test compound solution per desired buffer in addition to 20 μL required to make a test standard. For example, to test a compound in both buffers, 100 μL (2*40 μL+20 μL) of 10 mM DMSO compound stock solution was required. The standard was created by diluting 20 μL of 10 mM DMSO compound stock solution into 180 μL of methanol and was shaken for five minutes to ensure solution uniformity. […] This 1,000 μM solution was run on an Agilent 1260 LC-MS system by injecting 2 μL in order to obtain the peak area. For the test solutions, 40 μL of 10 mM DMSO compound stock solution, per PBS buffer condition, were dried down into a powder overnight. Once in powder form, 400 μL of the desired PBS buffer was added to the powder and allowed to shake vigorously for four hours. The maximum theoretical concentration for this sample solution was 1,000 μM. After four hours of shaking, the samples were centrifuged for 10 minutes at 3,000 RPM before injecting 2 μL on the same Agilent 1260 LC-MS system to obtain the peak area. […]

The target of the next series is T2, JAK3 (Homo sapiens, UniProt P52333).
T2 construct: GST; purchased Life Technologies
T2 sequence (P52333 1-1124): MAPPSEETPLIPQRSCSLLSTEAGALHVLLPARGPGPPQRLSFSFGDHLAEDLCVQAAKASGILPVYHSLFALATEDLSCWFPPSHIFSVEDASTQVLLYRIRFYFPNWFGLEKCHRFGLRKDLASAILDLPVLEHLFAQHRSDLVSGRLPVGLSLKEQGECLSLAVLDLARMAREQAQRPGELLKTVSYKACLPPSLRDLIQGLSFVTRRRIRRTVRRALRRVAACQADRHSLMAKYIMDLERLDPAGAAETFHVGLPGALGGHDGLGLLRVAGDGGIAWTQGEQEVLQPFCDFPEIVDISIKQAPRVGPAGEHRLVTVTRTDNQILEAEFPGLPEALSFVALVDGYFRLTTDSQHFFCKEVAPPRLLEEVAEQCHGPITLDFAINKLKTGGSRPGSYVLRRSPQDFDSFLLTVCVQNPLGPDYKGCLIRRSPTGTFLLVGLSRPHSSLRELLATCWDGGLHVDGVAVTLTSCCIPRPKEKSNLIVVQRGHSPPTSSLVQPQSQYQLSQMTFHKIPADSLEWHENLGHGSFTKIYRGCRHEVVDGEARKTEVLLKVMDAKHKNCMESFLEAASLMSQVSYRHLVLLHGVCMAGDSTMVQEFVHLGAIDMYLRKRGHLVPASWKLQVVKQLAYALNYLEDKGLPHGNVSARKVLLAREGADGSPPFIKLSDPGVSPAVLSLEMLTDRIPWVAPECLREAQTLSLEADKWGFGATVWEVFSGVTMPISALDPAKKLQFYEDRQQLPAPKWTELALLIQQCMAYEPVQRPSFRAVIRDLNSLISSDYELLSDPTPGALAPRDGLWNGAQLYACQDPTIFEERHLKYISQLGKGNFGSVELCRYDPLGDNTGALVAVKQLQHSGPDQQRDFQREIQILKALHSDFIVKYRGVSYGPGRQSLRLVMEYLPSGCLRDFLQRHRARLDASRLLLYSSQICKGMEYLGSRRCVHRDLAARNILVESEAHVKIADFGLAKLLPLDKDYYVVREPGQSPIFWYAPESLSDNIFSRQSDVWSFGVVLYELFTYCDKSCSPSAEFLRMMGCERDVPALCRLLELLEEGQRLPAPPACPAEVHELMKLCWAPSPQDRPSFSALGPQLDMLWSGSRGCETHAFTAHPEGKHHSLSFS
Kind of series: Biochemical LanthaScreen JAK3 kinase assay. As to conditions: Km ATP 1.6 μM; pKi from pIC50 by Cheng-Prusoff; read-out: JAK 3 (pKi) (converted). How it is done: as §1

T1 sequence (P23458 whole entry): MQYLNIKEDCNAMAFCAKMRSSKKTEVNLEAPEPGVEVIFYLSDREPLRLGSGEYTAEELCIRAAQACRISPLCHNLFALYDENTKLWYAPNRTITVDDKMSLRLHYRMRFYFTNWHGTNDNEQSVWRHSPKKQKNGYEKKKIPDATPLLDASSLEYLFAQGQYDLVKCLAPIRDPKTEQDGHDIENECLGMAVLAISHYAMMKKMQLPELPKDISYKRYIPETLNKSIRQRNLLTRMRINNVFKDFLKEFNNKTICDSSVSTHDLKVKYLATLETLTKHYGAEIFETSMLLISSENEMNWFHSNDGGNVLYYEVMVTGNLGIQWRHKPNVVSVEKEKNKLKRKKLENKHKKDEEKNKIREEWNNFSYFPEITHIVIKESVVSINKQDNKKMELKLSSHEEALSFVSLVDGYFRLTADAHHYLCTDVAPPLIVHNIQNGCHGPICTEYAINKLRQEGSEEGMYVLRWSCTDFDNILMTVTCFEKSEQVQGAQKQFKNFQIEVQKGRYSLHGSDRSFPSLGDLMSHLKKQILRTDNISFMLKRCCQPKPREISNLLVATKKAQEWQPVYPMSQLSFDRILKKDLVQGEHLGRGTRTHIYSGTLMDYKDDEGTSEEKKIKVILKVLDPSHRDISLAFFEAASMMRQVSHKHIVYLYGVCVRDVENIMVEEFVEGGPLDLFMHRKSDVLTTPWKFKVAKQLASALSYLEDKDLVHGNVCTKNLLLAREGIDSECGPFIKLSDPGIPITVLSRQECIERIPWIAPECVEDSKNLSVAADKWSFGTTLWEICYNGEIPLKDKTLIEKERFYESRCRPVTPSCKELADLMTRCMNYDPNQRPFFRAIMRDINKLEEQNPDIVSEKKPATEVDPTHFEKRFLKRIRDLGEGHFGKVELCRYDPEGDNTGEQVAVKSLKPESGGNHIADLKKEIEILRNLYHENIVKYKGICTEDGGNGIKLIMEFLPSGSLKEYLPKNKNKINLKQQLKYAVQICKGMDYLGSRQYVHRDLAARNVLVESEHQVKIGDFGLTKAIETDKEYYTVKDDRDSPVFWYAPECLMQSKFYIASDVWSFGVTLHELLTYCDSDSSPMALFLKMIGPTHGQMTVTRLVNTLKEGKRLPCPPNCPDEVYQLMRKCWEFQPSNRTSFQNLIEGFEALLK

With `CCS(=O)(=O)N1[C@@H]2CCC[C@H]1C[C@H](N(C)c1nc(COC(C)=O)c(F)c(Nc3cc(C)[nH]n3)n1)C2` [Compound 1, (2-(((1R,3s,5S)-9-(ethylsulfonyl)-9-azabicyclo[3.3.1]nonan-3-yl)(methyl)amino)-5-fluoro-6-((5-methyl-1H-pyrazol-3-yl)amino)pyrimidin-4-yl)methyl acetate], the Ki on JAK1 and on JAK3 was 0.1 to 1 nM throughout. The same compound gave a solubility at 4 h in “physchem” of 10 to 50 µM.
In the case of `CCC(=O)OCc1nc(N(C)[C@@H]2C[C@H]3CCC[C@@H](C2)N3S(=O)(=O)CC)nc(Nc2cc(C)[nH]n2)c1F` [Compound 2, (2-(((1R,3s,5S)-9-(ethylsulfonyl)-9-azabicyclo[3.3.1]nonan-3-yl)(methyl)amino)-5-fluoro-6-((5-methyl-1H-pyrazol-3-yl)amino)pyrimidin-4-yl)methyl propionate], the Ki on JAK1 and on JAK3 was 0.1 to 1 nM in each case. For the same compound, the solubility at 4 h in the series “physchem” was 10 to 50 µM (≈ 5.24 to 26.2 µg/mL).
In the case of `CCCC(=O)OCc1nc(N(C)[C@@H]2C[C@H]3CCC[C@@H](C2)N3S(=O)(=O)CC)nc(Nc2cc(C)[nH]n2)c1F` [Compound 3, (2-(((1R,3s,5S)-9-(ethylsulfonyl)-9-azabicyclo[3.3.1]nonan-3-yl)(methyl)amino)-5-fluoro-6-((5-methyl-1H-pyrazol-3-yl)amino)pyrimidin-4-yl)methyl butyrate], the Ki at JAK1 is 0.1 to 1 nM; on JAK3, 1 to 10 nM. For the same compound, the solubility at 4 h in “physchem” was in the range of 10 to 50 µM (≈ 5.38 to 26.9 µg/mL).
For `CCCCC(=O)OCc1nc(N(C)[C@@H]2C[C@H]3CCC[C@@H](C2)N3S(=O)(=O)CC)nc(Nc2cc(C)[nH]n2)c1F` [Compound 4, (2-(((1R,3s,5S)-9-(ethylsulfonyl)-9-azabicyclo[3.3.1]nonan-3-yl)(methyl)amino)-5-fluoro-6-((5-methyl-1H-pyrazol-3-yl)amino)pyrimidin-4-yl)methyl pentanoate], the Ki is 0.1 to 1 nM at JAK1 and 1 to 10 nM at JAK3. In addition, the solubility at 4 h in the series “physchem” lay within 50 to 100 µM (≈ 27.6 to 55.2 µg/mL).
Consider `CCCCCCC(=O)OCc1nc(N(C)[C@@H]2C[C@H]3CCC[C@@H](C2)N3S(=O)(=O)CC)nc(Nc2cc(C)[nH]n2)c1F` [Compound 5, (2-(((1R,3s,5S)-9-(ethylsulfonyl)-9-azabicyclo[3.3.1]nonan-3-yl)(methyl)amino)-5-fluoro-6-((5-methyl-1H-pyrazol-3-yl)amino)pyrimidin-4-yl)methyl heptanoate], for which the figures for the Ki on JAK1 and at JAK3 were 1 to 10 nM and 10 to 100 nM, respectively. The solubility at 4 h in the series “physchem” fell in the range of 10 to 50 µM (≈ 5.8 to 29 µg/mL).
In the case of `CCS(=O)(=O)N1[C@@H]2CCC[C@H]1C[C@H](N(C)c1nc(COC(=O)OC3CCCCC3)c(F)c(Nc3cc(C)[nH]n3)n1)C2` [Compound 6, cyclohexyl ((2-(((1R,3s,5S)-9-(ethylsulfonyl)-9-azabicyclo[3.3.1]nonan-3-yl)(methyl)amino)-5-fluoro-6-((5-methyl-1H-pyrazol-3-yl)amino)pyrimidin-4-yl)methyl) carbonate], the results for the Ki at JAK1 and at JAK3 were 1 to 10 nM and 10 to 100 nM, respectively. In the series “physchem”, this compound returned a solubility at 4 h of 10 to 50 µM (≈ 5.94 to 29.7 µg/mL).
For the compound `CCS(=O)(=O)N1[C@@H]2CCC[C@H]1C[C@H](N(C)c1nc(COC(=O)C3CCOCC3)c(F)c(Nc3cc(C)[nH]n3)n1)C2` [Compound 7, (2-(((1R,3s,5S)-9-(ethylsulfonyl)-9-azabicyclo[3.3.1]nonan-3-yl)(methyl)amino)-5-fluoro-6-((5-methyl-1H-pyrazol-3-yl)amino)pyrimidin-4-yl)methyl tetrahydro-2H-pyran-4-carboxylate], the Ki on JAK1 and at JAK3 was 0.1 to 1 nM in each case. Also, the solubility at 4 h in the series “physchem” is 100 to 1000 µM (≈ 58 to 580 µg/mL).
`CCS(=O)(=O)N1[C@@H]2CCC[C@H]1C[C@H](N(C)c1nc(COC(=O)OC(C)C)c(F)c(Nc3cc(C)[nH]n3)n1)C2` [Compound 8, (2-(((1R,3s,5S)-9-(ethylsulfonyl)-9-azabicyclo[3.3.1]nonan-3-yl)(methyl)amino)-5-fluoro-6-((5-methyl-1H-pyrazol-3-yl)amino)pyrimidin-4-yl)methyl isopropyl carbonate]: the Ki at JAK1 was 0.1 to 1 nM; at JAK3, 1 to 10 nM. The solubility at 4 h in “physchem” was 50 to 100 µM (≈ 27.7 to 55.4 µg/mL).
As to `CCS(=O)(=O)N1[C@@H]2CCC[C@H]1C[C@H](N(C)c1nc(COC(=O)OC3CCOCC3)c(F)c(Nc3cc(C)[nH]n3)n1)C2` [Compound 9, (2-(((1R,3s,5S)-9-(ethylsulfonyl)-9-azabicyclo[3.3.1]nonan-3-yl)(methyl)amino)-5-fluoro-6-((5-methyl-1H-pyrazol-3-yl)amino)pyrimidin-4-yl)methyl (tetrahydro-2H-pyran-4-yl) carbonate], the Ki was 0.1 to 1 nM on JAK1 and 1 to 10 nM on JAK3. The compound further came in with a solubility at 4 h in the series “physchem” of 100 to 1000 µM (≈ 59.6 to 596 µg/mL).
The matching figures for `CCS(=O)(=O)N1[C@@H]2CCC[C@H]1C[C@H](N(C)c1nc(CO)c(F)c(Nc3cc(C)[nH]n3)n1)C2` [Compound M, (2-(((1R,3s,5S)-9-(ethylsulfonyl)-9-azabicyclo[3.3.1]nonan-3-yl)(methyl)amino)-5-fluoro-6-((5-methyl-1H-pyrazol-3-yl)amino)pyrimidin-4-yl)methanol]: ≤ 0.1 nM, 0.1 to 1 nM and 10 to 50 µM (≈ 4.68 to 23.4 µg/mL).
